Columns and labels:
gout arthritis = type: in vivo, female Wistar rats; conditions: for Global anti-inflammatory and analgesic activity expressed in CT AUC: through 5 hours of assessment; for effect of used dose on walking capability / relaxation of the animals: rat, in vivo
From the text: PIFIR experimental model is a preclinical model wherein gout arthritis is possible to be determined in a rodent and the anti-inflammatory and analgesic efficacy of several drugs in animals with this alteration is compared. This experimental model has some important advantages regarding other preclinical methodologies: a) an alteration which clinically affects to humans is established in the rodent: gout type arthritis; b) temporary course of anti-inflammatory and analgesic effect may be determined along […] in the same experimental subject, without producing rodent conditioning factor or learning, being this a significant disadvantage in other experimental models; c) less test drug is consumed compared with other experimental models; d) anti-inflammatory and analgesic effect assessment is performed by computer and not depending on sometimes subjective observations.
Experiments were performed by using female Wistar rats having a weight of about 180 to 200 g. Animals were kept in a room with alternate light/darkness cycles. Food was withdrawn from rats twelve hours before experimentation, with water ad-libitum. All experiments were carried out during light time, the animals being used only once.
Animals were anesthesized in a glass desiccator saturated with […]. Gout arthritis was induced by applying a 0.05 ml intra-articular uric acid injection suspended in mineral oil in the right anterior limb, exactly on the femoral-tibio-rotular joint. A 1 ml glass syringe was used for intra-articular injection with a No. 22 4 mm long needle. An electrode was fixed immediately later in every anterior leg between the plantar calluses. Rats were left to recover from anesthesia and they were enclosed in a 30 cm diameter stainless steel rotary cylinder. Cylinder was rotated at 4 rpm, forcing to the rats to walk during 2 min every half hour, during 5 hours after total dysfunction.
Contact time was the measured variable at every anterior leg from the rats in the cylinder. When electrode is in contact with the cylinder a circuit is closed and the contact time ratio between injured to uninjured legs was registered in a computer.
Temporary courses for every treatment were determined during 5 continuous hours, using a "n" of 6 rats per treatment.

[1] = cited from earlier work
[2] = each compound 177.8 mg/kg, alone or combined
[3] = after being orally administered

## C[C@H]1C[C@H]2[C@@H]3CCC4=CC(=O)C=C[C@]4(C)[C@@]3(F)[C@@H](O)C[C@]2(C)[C@@]1(O)C(=O)CO [Betamethasone]
Gout arthritis; [2]
  Global anti-inflammatory and analgesic activity expressed in CT AUC: 31.6 ± 10.8 ua
Gout arthritis; each compound 177.8 mg/kg, single dose, alone or combined, CT over 5 hours
  time of maximum effect after delivery: 4.5 h
Gout arthritis; each compound 177.8 mg/kg, single dose, alone or combined, temporary course (CT) over 5 hours, n = 6 rats
  Maximum effect (anti-inflammatory and analgesic effect): 24.0 ± 11.9%
Gout arthritis
  effect of used dose on walking capability / relaxation of the animals: did not affect the walking rat capability

## COc1ccccc1OCC(O)COC(N)=O (stereo not drawn) [Methocarbamol]
[1]; [3]
  beginning of pharmacological action: ≤ 30 minutes
  total therapeutic action duration: about 24 hours
[1]; in vivo
  half-life: about 14 hours
Gout arthritis; [2]
  Global anti-inflammatory and analgesic activity expressed in CT AUC: 48.8 ± 21.0 ua
Gout arthritis
  effect of used dose on walking capability / relaxation of the animals: slight relaxation effect

Source: patent EP2201949A1 (World Trade Import-Export, WTIE A.G., priority 2007, dated 2009)
